{"source": "ChEMBL document CHEMBL5291721", "about": "“A preclinical secondary pharmacology resource illuminates target-adverse drug reaction associations of marketed drugs” (Nat Commun, 2023); also: assay procedure not described here", "key": {"Progesterone receptor": {"molecular_target": "T1, Progesterone receptor (Homo sapiens, UniProt P06401)", "T1 sequence (P06401 whole entry)": "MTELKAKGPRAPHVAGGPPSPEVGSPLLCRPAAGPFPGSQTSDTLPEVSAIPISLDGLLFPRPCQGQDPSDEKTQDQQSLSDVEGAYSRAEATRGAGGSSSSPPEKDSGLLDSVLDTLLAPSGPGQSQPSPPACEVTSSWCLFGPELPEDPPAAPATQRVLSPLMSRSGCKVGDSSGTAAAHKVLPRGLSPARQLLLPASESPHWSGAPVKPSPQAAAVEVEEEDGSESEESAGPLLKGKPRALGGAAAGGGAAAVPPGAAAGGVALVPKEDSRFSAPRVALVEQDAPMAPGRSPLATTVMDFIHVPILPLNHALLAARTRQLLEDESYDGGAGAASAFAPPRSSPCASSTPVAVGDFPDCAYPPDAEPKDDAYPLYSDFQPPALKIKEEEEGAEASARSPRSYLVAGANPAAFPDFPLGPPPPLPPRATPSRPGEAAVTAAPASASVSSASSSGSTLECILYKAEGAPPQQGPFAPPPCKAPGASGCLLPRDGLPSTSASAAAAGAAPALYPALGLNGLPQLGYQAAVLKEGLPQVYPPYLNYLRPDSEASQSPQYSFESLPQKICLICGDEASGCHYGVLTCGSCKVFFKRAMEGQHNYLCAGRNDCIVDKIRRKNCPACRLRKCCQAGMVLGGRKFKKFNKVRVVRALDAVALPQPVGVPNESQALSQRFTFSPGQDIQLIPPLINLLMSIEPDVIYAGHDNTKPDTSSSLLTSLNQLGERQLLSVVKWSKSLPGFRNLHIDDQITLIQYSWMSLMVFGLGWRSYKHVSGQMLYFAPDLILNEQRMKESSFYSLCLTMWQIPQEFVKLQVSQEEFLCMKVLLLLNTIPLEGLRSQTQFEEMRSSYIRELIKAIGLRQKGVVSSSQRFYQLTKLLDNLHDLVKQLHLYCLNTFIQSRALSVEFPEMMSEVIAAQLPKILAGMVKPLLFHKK"}, "Prothrombin": {"molecular_target": "Prothrombin (Homo sapiens, UniProt P00734)", "assay_type": "functional"}, "Histamine H3 receptor": {"molecular_target": "Histamine H3 receptor (Homo sapiens, UniProt Q9Y5N1)", "sequence (Q9Y5N1 whole entry)": "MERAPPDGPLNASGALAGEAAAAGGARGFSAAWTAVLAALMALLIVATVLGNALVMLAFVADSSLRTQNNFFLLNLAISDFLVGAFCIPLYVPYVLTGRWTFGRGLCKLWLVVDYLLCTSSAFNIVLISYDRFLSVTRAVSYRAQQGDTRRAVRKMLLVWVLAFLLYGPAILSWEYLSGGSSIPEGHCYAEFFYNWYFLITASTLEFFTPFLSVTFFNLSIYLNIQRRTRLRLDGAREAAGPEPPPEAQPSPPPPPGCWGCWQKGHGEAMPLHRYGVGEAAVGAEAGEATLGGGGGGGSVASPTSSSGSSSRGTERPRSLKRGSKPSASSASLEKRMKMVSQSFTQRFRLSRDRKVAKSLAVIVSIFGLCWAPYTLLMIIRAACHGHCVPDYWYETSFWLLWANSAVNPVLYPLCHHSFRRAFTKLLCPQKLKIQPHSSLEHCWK"}, "Thromboxane A2 receptor": {"molecular_target": "T2, Thromboxane A2 receptor (Homo sapiens, UniProt P21731)", "T2 sequence (P21731 whole entry)": "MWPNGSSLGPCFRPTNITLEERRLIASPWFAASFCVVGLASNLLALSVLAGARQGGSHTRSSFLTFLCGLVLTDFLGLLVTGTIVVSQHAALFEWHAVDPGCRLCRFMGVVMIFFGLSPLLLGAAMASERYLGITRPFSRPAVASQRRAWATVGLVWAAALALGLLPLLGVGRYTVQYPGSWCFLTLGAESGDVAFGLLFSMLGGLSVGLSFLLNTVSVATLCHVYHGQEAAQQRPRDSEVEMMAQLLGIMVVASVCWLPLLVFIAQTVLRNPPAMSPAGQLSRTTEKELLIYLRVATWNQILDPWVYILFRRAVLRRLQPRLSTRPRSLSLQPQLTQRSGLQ", "assay_type": "functional, cell-based"}, "Adenosine receptor A1": {"molecular_target": "T3, Adenosine receptor A1 (Homo sapiens, UniProt P30542)", "T3 sequence (P30542 whole entry)": "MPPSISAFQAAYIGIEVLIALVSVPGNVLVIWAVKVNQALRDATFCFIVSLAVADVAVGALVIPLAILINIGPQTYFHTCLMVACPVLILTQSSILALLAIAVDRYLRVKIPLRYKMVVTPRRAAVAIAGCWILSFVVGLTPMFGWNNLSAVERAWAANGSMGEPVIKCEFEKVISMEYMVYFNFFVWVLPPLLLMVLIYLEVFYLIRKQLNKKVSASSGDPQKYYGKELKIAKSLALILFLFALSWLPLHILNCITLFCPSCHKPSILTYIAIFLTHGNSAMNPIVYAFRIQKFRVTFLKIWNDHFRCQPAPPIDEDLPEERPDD"}, "[1]": {"molecular_target": "Gamma-aminobutyric acid receptor subunit alpha-1 (Rattus norvegicus, UniProt P62813)", "sequence (P62813 whole entry)": "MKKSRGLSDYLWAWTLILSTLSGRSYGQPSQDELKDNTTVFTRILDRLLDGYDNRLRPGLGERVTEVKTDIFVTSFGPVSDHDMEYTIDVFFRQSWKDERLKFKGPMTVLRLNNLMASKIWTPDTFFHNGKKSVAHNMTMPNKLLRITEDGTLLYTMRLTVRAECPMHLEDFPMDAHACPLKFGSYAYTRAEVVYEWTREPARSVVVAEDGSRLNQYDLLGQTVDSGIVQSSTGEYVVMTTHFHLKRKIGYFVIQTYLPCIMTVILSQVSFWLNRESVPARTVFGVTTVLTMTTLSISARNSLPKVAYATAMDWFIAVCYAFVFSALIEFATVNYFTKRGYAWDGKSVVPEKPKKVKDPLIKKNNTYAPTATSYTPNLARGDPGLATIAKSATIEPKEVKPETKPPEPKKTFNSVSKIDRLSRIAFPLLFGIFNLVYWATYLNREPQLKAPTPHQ"}, "[2]": {"molecular_target": "5-hydroxytryptamine receptor 5A (Homo sapiens, UniProt P47898)", "sequence (P47898 whole entry)": "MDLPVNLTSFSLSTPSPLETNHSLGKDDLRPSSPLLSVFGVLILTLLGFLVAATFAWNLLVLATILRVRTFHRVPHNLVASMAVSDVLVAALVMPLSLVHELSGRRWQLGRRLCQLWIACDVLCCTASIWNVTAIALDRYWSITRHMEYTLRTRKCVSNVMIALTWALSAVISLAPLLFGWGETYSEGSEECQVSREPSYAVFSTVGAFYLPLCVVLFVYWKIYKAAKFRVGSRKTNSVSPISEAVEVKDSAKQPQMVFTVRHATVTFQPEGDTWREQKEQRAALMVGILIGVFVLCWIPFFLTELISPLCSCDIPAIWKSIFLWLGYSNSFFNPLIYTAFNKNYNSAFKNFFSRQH"}, "[3]": {"molecular_target": "T4, Muscarinic acetylcholine receptor M5 (Homo sapiens, UniProt P08912)", "T4 sequence (P08912 whole entry)": "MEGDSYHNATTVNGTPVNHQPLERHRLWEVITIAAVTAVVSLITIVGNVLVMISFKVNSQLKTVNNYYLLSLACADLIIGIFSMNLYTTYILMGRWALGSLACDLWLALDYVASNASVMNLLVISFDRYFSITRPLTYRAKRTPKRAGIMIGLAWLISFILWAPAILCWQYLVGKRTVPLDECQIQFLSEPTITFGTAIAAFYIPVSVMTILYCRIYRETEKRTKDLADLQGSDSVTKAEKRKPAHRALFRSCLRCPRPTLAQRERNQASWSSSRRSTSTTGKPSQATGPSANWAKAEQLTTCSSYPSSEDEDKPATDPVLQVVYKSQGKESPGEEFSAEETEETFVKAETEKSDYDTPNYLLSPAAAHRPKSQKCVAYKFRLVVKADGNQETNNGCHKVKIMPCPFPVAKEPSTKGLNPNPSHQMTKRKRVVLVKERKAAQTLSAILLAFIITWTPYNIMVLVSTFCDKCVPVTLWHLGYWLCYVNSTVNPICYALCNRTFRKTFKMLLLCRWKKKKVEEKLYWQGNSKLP"}, "[4]": {"molecular_target": "Rod cGMP-specific 3',5'-cyclic phosphodiesterase subunit alpha (Homo sapiens, UniProt P16499)", "sequence (P16499 whole entry)": "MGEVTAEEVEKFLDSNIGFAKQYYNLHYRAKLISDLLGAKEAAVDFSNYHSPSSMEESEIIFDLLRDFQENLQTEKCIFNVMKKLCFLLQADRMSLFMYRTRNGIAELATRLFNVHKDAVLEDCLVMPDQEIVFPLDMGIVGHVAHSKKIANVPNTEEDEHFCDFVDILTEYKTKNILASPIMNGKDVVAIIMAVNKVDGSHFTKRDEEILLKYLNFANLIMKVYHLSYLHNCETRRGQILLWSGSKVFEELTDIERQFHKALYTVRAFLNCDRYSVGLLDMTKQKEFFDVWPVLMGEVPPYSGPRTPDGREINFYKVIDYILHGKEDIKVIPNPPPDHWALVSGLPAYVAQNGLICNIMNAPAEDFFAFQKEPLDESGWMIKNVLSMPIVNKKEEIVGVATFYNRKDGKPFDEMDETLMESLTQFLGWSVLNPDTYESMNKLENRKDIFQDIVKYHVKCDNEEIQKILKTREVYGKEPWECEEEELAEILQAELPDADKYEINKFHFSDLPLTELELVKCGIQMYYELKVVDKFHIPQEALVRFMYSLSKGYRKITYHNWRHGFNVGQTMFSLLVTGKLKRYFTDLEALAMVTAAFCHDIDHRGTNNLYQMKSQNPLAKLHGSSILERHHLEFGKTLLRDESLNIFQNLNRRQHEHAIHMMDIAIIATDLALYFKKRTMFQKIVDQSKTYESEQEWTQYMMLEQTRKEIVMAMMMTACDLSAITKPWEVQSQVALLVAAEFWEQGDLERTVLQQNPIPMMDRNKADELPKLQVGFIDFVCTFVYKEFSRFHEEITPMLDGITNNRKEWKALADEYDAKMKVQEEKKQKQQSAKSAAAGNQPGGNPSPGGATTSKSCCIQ", "assay_type": "functional"}, "Substance-K receptor": {"molecular_target": "T5, Substance-K receptor (Homo sapiens, UniProt P21452)", "T5 sequence (P21452 whole entry)": "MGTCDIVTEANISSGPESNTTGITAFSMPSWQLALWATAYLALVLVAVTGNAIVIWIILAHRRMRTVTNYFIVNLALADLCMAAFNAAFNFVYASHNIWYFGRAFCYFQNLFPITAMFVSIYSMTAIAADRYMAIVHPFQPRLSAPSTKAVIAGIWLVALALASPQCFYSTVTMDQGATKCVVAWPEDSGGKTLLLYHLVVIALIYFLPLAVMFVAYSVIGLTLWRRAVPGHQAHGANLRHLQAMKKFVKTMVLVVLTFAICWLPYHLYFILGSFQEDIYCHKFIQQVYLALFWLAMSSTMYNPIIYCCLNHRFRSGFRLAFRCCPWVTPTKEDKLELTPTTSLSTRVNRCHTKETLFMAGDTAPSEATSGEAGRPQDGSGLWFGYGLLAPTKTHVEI"}, "[5]": {"molecular_target": "Hydroxycarboxylic acid receptor 2 (Homo sapiens, UniProt Q8TDS4)", "sequence (Q8TDS4 whole entry)": "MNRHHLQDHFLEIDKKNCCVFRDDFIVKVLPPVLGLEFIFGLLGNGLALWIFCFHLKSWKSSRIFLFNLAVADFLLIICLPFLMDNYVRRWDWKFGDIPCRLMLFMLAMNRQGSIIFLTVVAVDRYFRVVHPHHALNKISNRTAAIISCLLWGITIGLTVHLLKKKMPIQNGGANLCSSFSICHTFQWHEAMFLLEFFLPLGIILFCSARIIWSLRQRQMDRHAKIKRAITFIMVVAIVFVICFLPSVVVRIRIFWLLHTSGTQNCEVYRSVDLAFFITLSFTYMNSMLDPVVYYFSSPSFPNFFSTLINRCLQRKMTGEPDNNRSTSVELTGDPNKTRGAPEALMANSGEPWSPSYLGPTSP"}}, "data": [{"molecule": "COLISTIN", "values": [{"measurement": "AC50", "setting": "Progesterone receptor", "value": "> 30", "unit": "µM"}, {"measurement": "AC50", "setting": "Prothrombin", "value": "> 30", "unit": "µM"}, {"measurement": "AC50", "setting": "Histamine H3 receptor", "value": "> 30", "unit": "µM"}, {"measurement": "AC50", "setting": "Thromboxane A2 receptor", "value": "> 30", "unit": "µM"}, {"measurement": "AC50", "setting": "Adenosine receptor A1", "value": "> 30", "unit": "µM"}, {"measurement": "AC50", "setting": "[1]", "value": "> 30", "unit": "µM"}]}, {"molecule": "N#C[C@@H]1CCCN1C(=O)CNC12CC3CC(CC(O)(C3)C1)C2", "note": "[VILDAGLIPTIN]", "values": [{"measurement": "AC50", "setting": "[2]", "value": "> 10", "unit": "µM"}, {"measurement": "AC50", "setting": "[3]", "value": "> 10", "unit": "µM"}, {"measurement": "AC50", "setting": "[4]", "value": "> 10", "unit": "µM"}, {"measurement": "AC50", "setting": "Substance-K receptor", "value": "> 10", "unit": "µM"}]}, {"molecule": "NCCCC(O)(P(=O)(O)O)P(=O)(O)O", "note": "[ALENDRONIC ACID]", "values": [{"measurement": "AC50", "setting": "Progesterone receptor", "value": "> 30", "unit": "µM"}, {"measurement": "AC50", "setting": "Prothrombin", "value": "> 30", "unit": "µM"}, {"measurement": "AC50", "setting": "Histamine H3 receptor", "value": "> 30", "unit": "µM"}, {"measurement": "AC50", "setting": "Thromboxane A2 receptor", "value": "> 30", "unit": "µM"}, {"measurement": "AC50", "setting": "Adenosine receptor A1", "value": "> 30", "unit": "µM"}, {"measurement": "AC50", "setting": "[1]", "value": "> 30", "unit": "µM"}]}, {"molecule": "CC(C)CC(N(C)C)C1(c2ccc(Cl)cc2)CCC1", "note": "(stereo unspecified) [SIBUTRAMINE]", "values": [{"measurement": "AC50", "setting": "[5]", "value": "> 10", "unit": "µM"}]}, {"molecule": "CC(CCc1ccccc1)NC(C)C(O)c1ccc(O)cc1", "note": "(stereo unspecified) [NYLIDRIN]", "values": [{"measurement": "AC50", "setting": "[2]", "value": "> 10", "unit": "µM"}, {"measurement": "AC50", "setting": "[3]", "value": "> 10", "unit": "µM"}, {"measurement": "AC50", "setting": "[4]", "value": "> 10", "unit": "µM"}, {"measurement": "AC50", "setting": "Substance-K receptor", "value": "> 10", "unit": "µM"}]}, {"molecule": "O=C1Nc2ccc(Cl)cc2C(c2ccccc2)=NC1O", "note": "(stereo unspecified) [OXAZEPAM]", "values": [{"measurement": "AC50", "setting": "[2]", "value": "> 10", "unit": "µM"}, {"measurement": "AC50", "setting": "[3]", "value": "> 10", "unit": "µM"}, {"measurement": "AC50", "setting": "[4]", "value": "> 10", "unit": "µM"}, {"measurement": "AC50", "setting": "Substance-K receptor", "value": "> 10", "unit": "µM"}]}, {"molecule": "COC1=C(OC)C(=O)C(CCCCCCCCCCO)=C(C)C1=O", "note": "[IDEBENONE]", "values": [{"measurement": "AC50", "setting": "[2]", "value": "> 10", "unit": "µM"}, {"measurement": "AC50", "setting": "[3]", "value": "> 10", "unit": "µM"}, {"measurement": "AC50", "setting": "[4]", "value": "> 10", "unit": "µM"}, {"measurement": "AC50", "setting": "Substance-K receptor", "value": "> 10", "unit": "µM"}]}, {"molecule": "CCCC(C)(COC(N)=O)COC(=O)NC(C)C", "note": "(stereo unspecified) [CARISOPRODOL]", "values": [{"measurement": "AC50", "setting": "[5]", "value": "> 10", "unit": "µM"}]}, {"molecule": "C[n+]1ccccc1/C=N/O", "note": "[PRALIDOXIME]", "values": [{"measurement": "AC50", "setting": "Progesterone receptor", "value": "> 30", "unit": "µM"}, {"measurement": "AC50", "setting": "Prothrombin", "value": "> 30", "unit": "µM"}, {"measurement": "AC50", "setting": "Histamine H3 receptor", "value": "> 30", "unit": "µM"}, {"measurement": "AC50", "setting": "Thromboxane A2 receptor", "value": "> 30", "unit": "µM"}, {"measurement": "AC50", "setting": "Adenosine receptor A1", "value": "> 30", "unit": "µM"}, {"measurement": "AC50", "setting": "[1]", "value": "> 30", "unit": "µM"}]}, {"molecule": "CC(=O)OCC(CCn1cnc2cnc(N)nc21)COC(C)=O", "note": "[FAMCICLOVIR]", "values": [{"measurement": "AC50", "setting": "[5]", "value": "> 10", "unit": "µM"}]}, {"molecule": "O=C1CN=C(c2ccccc2)c2cc(Cl)ccc2N1", "note": "[NORDAZEPAM]", "values": [{"measurement": "AC50", "setting": "[2]", "value": "> 10", "unit": "µM"}, {"measurement": "AC50", "setting": "[3]", "value": "> 10", "unit": "µM"}, {"measurement": "AC50", "setting": "[4]", "value": "> 10", "unit": "µM"}, {"measurement": "AC50", "setting": "Substance-K receptor", "value": "> 10", "unit": "µM"}]}]}
